Reference: patent US7405038B1, “Stable cell lines resistant to apoptosis and nutrient stress and methods of making same” (Boyce Thompson Institute for Plant Research, Inc., priority 2000, dated 2008)
Numbered stars: 1 amine (or outer) side, 2 acyl side, 3 side chain; on linkers, the order of the positions; unused ones are H or OH. Bridge positions count the residues as written; N and C are the ends. Square brackets hold non-standard residues; d marks the D form. Peptide text beside a SMILES is read from it. I, II: the chains in the order shown. Actinocin(9to1) = Cc1c2oc3c(C)ccc(C(=O)[*:1])c3nc-2c(C(=O)[*:2])c(N)c1=O; NMeV = CN[C@H](C(=O)O)C(C)C; Sar = CNCC(=O)O

Key:
Format in all cases: cell-based, Spodoptera frugiperda
[1] = system: surviving transfected Sf9 cells; experiment: Actinomycin D selection of G418-selected transfected cells; conditions: 0.1 μg/ml actinomycin D for 1 hour, then fresh TNMFH; after three days
Procedure: In order to select cells expressing higher levels of functional P35, the surviving transfected cells were placed in medium containing 0.1 μg/ml actinomycin D for 1 hour. Another example of an inducer of apoptosis that could be used to select cells resistant to apoptosis is UV irradiation. In mammalian cells, inducers of apoptosis such as tumor necrosis factor (TNF) could also be used. The selection using an inducer of apoptosis could alternatively be performed without cotransfection with a selectable marker such as an antibiotic resistance gene.
At the end of the one hour incubation in actinomycin D, the medium was replaced with fresh TNMFH medium (containing no actinomycin D) and cells were allowed to grow for three days. After three days, 85-90% of the cells treated with actinomycin D-containing medium died. Medium was replaced after 3 days and surviving single cells formed small colonies which were subsequently propagated and used to clone individual cell lines by limiting dilution. For limiting dilution cloning, cells were diluted into 96 well plates such that each well received only one cell on average. Each well was subsequently monitored to ensure that only a single colony was present. Monoclonal cell lines were selected and propagated. Cell lines expressing the native P35 protein were named Sf9^P35, and lines expressing the epitope tagged P35 protein were named Sf9^P35AcV5. […]

[2] = system: Sf9 cells; experiment: DNA laddering on agarose gel after actinomycin D exposure; conditions: 0.1 μg/ml actinomycin D for one hour, 24 hours in fresh TNMFH
Procedure: (§1) To further examine resistance to apoptosis by P35 expressing cells, Sf9, Sf9^P35AcV5−1 and Sf9^P35AcV5−3 cells were plated at 2×10^6 cells/well in 6-well plates, then exposed to actinomycin D (0.1 μg/ml) for one hour, and incubated in fresh TNMFH medium at 27° C. for 24 hours. Cells were harvested and washed twice with PBS. Lysates were prepared by incubating cells in 200 μl lysis buffer (10 mM Tris pH 7.5, 25 mM EDTA, 0.2% Triton X-100) for one hour at room temperature. The lysate was extracted once with phenol, once with phenol:chloroform (1:1), twice with chloroform, and then precipitated in two volumes of ethanol. Cellular DNA was resuspended in 30 μl water containing RNAse A (50 μg/ml). 10 μl of DNA from each cell treatment was electrophoresed on a 1.2% agarose gel in TBE buffer (not shown).

[3] = system: Sf9P35AcV5-1 cells; experiment: as above; conditions: 0.1 μg/ml actinomycin D for one hour, 24 hours in fresh TNMFH
Procedure: as §1

[4] = system: Sf9P35AcV5-3 cells; experiment: as above; conditions: 0.1 μg/ml actinomycin D for one hour, 24 hours in fresh TNMFH
Procedure: as §1

[5] = system: Sf9 cells; experiment: Resistance to induction of apoptosis by actinomycin D: cell survival
Procedure: (§2) The cells were examined for resistance to induction of apoptosis by actinomycin D, as well as survival under conditions of nutrient deprivation. Sf9 cells or stably transfected lines Sf9^P35AcV5−1 and Sf9^P35AcV5−3 were incubated in medium containing 0.1 μg/ml actinomycin D for 1 hour, then placed in TNMFH medium.
(§3) Increasing doses of actinomycin D were tested to further examine the degree of resistance to this inducer of apoptosis. Sf9 or stably transfected cells expressing P35 were incubated in a range of concentrations of actinomycin D (0.01 to 0.5 μg/ml) for one hour, then placed in TNMFH and scored for cell survival after 1-4 days (Table 2).

[6] = system: Sf9P35AcV5-1 cells; experiment: as above
Procedure: as §2, §3

[7] = system: Sf9P35AcV5-3 cells; experiment: as above
Procedure: as §2, §3

[8] = 0.01 μg/ml actinomycin D for one hour, Day 1
[9] = 0.01 μg/ml actinomycin D for one hour, Day 2
[10] = 0.01 μg/ml actinomycin D for one hour, Day 3
[11] = 0.01 μg/ml actinomycin D for one hour, Day 4
[12] = 0.025 μg/ml actinomycin D for one hour, Day 1
[13] = 0.025 μg/ml actinomycin D for one hour, Day 2
[14] = 0.025 μg/ml actinomycin D for one hour, Day 3
[15] = 0.025 μg/ml actinomycin D for one hour, Day 4
[16] = 0.05 μg/ml actinomycin D for one hour, Day 1
[17] = 0.05 μg/ml actinomycin D for one hour, Day 2
[18] = 0.05 μg/ml actinomycin D for one hour, Day 3
[19] = 0.05 μg/ml actinomycin D for one hour, Day 4
[20] = 0.075 μg/ml actinomycin D for one hour, Day 1
[21] = 0.075 μg/ml actinomycin D for one hour, Day 2
[22] = 0.075 μg/ml actinomycin D for one hour, Day 3
[23] = 0.075 μg/ml actinomycin D for one hour, Day 4
[24] = 0.1 μg/ml actinomycin D for 1 hour, then TNMFH medium, after three days
[25] = 0.1 μg/ml actinomycin D for one hour, Day 1
[26] = 0.1 μg/ml actinomycin D for one hour, Day 2
[27] = 0.1 μg/ml actinomycin D for one hour, Day 3
[28] = 0.1 μg/ml actinomycin D for one hour, Day 4
[29] = 0.25 μg/ml actinomycin D for one hour, Day 1
[30] = 0.25 μg/ml actinomycin D for one hour, Day 2
[31] = 0.25 μg/ml actinomycin D for one hour, Day 3
[32] = 0.25 μg/ml actinomycin D for one hour, Day 4
[33] = 0.5 μg/ml actinomycin D for one hour, Day 1
[34] = 0.5 μg/ml actinomycin D for one hour, Day 2
[35] = 0.5 μg/ml actinomycin D for one hour, Day 3
[36] = 0.5 μg/ml actinomycin D for one hour, Day 4

Cc1c2oc3c(C)ccc(C(=O)N[C@@H]4C(=O)N[C@H](C(C)C)C(=O)N5CCC[C@H]5C(=O)N(C)CC(=O)N(C)[C@@H](C(C)C)C(=O)O[C@@H]4C)c3nc-2c(C(=O)N[C@@H]2C(=O)N[C@H](C(C)C)C(=O)N3CCC[C@H]3C(=O)N(C)CC(=O)N(C)[C@@H](C(C)C)C(=O)O[C@@H]2C)c(N)c1=O [Actinomycin D, actinomycin D] (I: T[dV]P[Sar][NMeV] / II: T[dV]P[Sar][NMeV]; ester I:1-I:C, II:1-II:C; linker I:N-II:N via Actinocin(9to1))
cells treated with actinomycin D-containing medium that died [1]: 85-90%
DNA laddering / degradation on ethidium bromide stained gel [2]: DNA laddering effect typical of apoptosis
DNA laddering / degradation on ethidium bromide stained gel [3]: little or no laddering or degradation
DNA laddering / degradation on ethidium bromide stained gel [4]: little or no laddering or degradation
Sf9 Cell Survival (Percentage) [5, 8]: 100 Percentage
Sf9 Cell Survival (Percentage) [5, 9]: 100 Percentage
Sf9 Cell Survival (Percentage) [5, 10]: 100 Percentage
Sf9 Cell Survival (Percentage) [5, 11]: 100 Percentage
Sf9 Cell Survival (Percentage) [5, 12]: 100 Percentage
Sf9 Cell Survival (Percentage) [5, 13]: 100 Percentage
Sf9 Cell Survival (Percentage) [5, 14]: 100 Percentage
Sf9 Cell Survival (Percentage) [5, 15]: 100 Percentage
Sf9 Cell Survival (Percentage) [5, 16]: 100 Percentage
Sf9 Cell Survival (Percentage) [5, 17]: 100 Percentage
Sf9 Cell Survival (Percentage) [5, 18]: 100 Percentage
Sf9 Cell Survival (Percentage) [5, 19]: 100 Percentage
survival of Sf9 cells ([5]; 0.075 μg/ml actinomycin D): 80-95%
Sf9 Cell Survival (Percentage) [5, 20]: 95 Percentage
Sf9 Cell Survival (Percentage) [5, 21]: 90 Percentage
Sf9 Cell Survival (Percentage) [5, 22]: 83 Percentage
Sf9 Cell Survival (Percentage) [5, 23]: 83 Percentage
survival of Sf9 cells ([5]; 0.1 μg/ml actinomycin D): ≤ 5%
survival of Sf9 cells [5, 24]: all Sf9 cells died
Sf9 Cell Survival (Percentage) [5, 25]: 13.7 Percentage
Sf9 Cell Survival (Percentage) [5, 26]: 8.6 Percentage
Sf9 Cell Survival (Percentage) [5, 27]: 3.7 Percentage
Sf9 Cell Survival (Percentage) [5, 28]: 0 Percentage
Sf9 Cell Survival (Percentage) [5, 29]: 4.5 Percentage
Sf9 Cell Survival (Percentage) [5, 30]: 3.6 Percentage
Sf9 Cell Survival (Percentage) [5, 31]: 0 Percentage
Sf9 Cell Survival (Percentage) [5, 32]: 0 Percentage
Sf9 Cell Survival (Percentage) [5, 33]: 0 Percentage
Sf9 Cell Survival (Percentage) [5, 34]: 0 Percentage
Sf9 Cell Survival (Percentage) [5, 35]: 0 Percentage
Sf9 Cell Survival (Percentage) [5, 36]: 0 Percentage
Sf9P35AcV5-1 Cell Survival (Percentage) [6, 8]: 100 Percentage
Sf9P35AcV5-1 Cell Survival (Percentage) [6, 9]: 100 Percentage
Sf9P35AcV5-1 Cell Survival (Percentage) [6, 10]: 100 Percentage
Sf9P35AcV5-1 Cell Survival (Percentage) [6, 11]: 100 Percentage
Sf9P35AcV5-1 Cell Survival (Percentage) [6, 12]: 100 Percentage
Sf9P35AcV5-1 Cell Survival (Percentage) [6, 13]: 100 Percentage
Sf9P35AcV5-1 Cell Survival (Percentage) [6, 14]: 100 Percentage
Sf9P35AcV5-1 Cell Survival (Percentage) [6, 15]: 100 Percentage
Sf9P35AcV5-1 Cell Survival (Percentage) [6, 16]: 100 Percentage
Sf9P35AcV5-1 Cell Survival (Percentage) [6, 17]: 100 Percentage
Sf9P35AcV5-1 Cell Survival (Percentage) [6, 18]: 100 Percentage
Sf9P35AcV5-1 Cell Survival (Percentage) [6, 19]: 100 Percentage
Sf9P35AcV5-1 Cell Survival (Percentage) [6, 20]: 100 Percentage
Sf9P35AcV5-1 Cell Survival (Percentage) [6, 21]: 100 Percentage
Sf9P35AcV5-1 Cell Survival (Percentage) [6, 22]: 100 Percentage
Sf9P35AcV5-1 Cell Survival (Percentage) [6, 23]: 100 Percentage
survival of Sf9P35AcV5-1 cells [6, 24]: survived
Sf9P35AcV5-1 Cell Survival (Percentage) [6, 25]: 100 Percentage
Sf9P35AcV5-1 Cell Survival (Percentage) [6, 26]: 100 Percentage
Sf9P35AcV5-1 Cell Survival (Percentage) [6, 27]: 100 Percentage
Sf9P35AcV5-1 Cell Survival (Percentage) [6, 28]: 100 Percentage
survival of stably transfected line ([6]; 0.25 μg/ml actinomycin D): 100%
Sf9P35AcV5-1 Cell Survival (Percentage) [6, 29]: 100 Percentage
Sf9P35AcV5-1 Cell Survival (Percentage) [6, 30]: 100 Percentage
Sf9P35AcV5-1 Cell Survival (Percentage) [6, 31]: 100 Percentage
Sf9P35AcV5-1 Cell Survival (Percentage) [6, 32]: 100 Percentage
survival of stably transfected line ([6]; 0.5 μg/ml actinomycin D): ≤ 10%
Sf9P35AcV5-1 Cell Survival (Percentage) [6, 33]: 8.5 Percentage
Sf9P35AcV5-1 Cell Survival (Percentage) [6, 34]: 5.7 Percentage
Sf9P35AcV5-1 Cell Survival (Percentage) [6, 35]: 1.5 Percentage
Sf9P35AcV5-1 Cell Survival (Percentage) [6, 36]: 0 Percentage
resistance to actinomycin D as an inducer of apoptosis ([6]; relative to Sf9 cells): ≥ 2 fold
Sf9P35AcV5-3 Cell Survival (Percentage) [7, 8]: 100 Percentage
Sf9P35AcV5-3 Cell Survival (Percentage) [7, 9]: 100 Percentage
Sf9P35AcV5-3 Cell Survival (Percentage) [7, 10]: 100 Percentage
Sf9P35AcV5-3 Cell Survival (Percentage) [7, 11]: 100 Percentage
Sf9P35AcV5-3 Cell Survival (Percentage) [7, 12]: 100 Percentage
Sf9P35AcV5-3 Cell Survival (Percentage) [7, 13]: 100 Percentage
Sf9P35AcV5-3 Cell Survival (Percentage) [7, 14]: 100 Percentage
Sf9P35AcV5-3 Cell Survival (Percentage) [7, 15]: 100 Percentage
Sf9P35AcV5-3 Cell Survival (Percentage) [7, 16]: 100 Percentage
Sf9P35AcV5-3 Cell Survival (Percentage) [7, 17]: 100 Percentage
Sf9P35AcV5-3 Cell Survival (Percentage) [7, 18]: 100 Percentage
Sf9P35AcV5-3 Cell Survival (Percentage) [7, 19]: 100 Percentage
Sf9P35AcV5-3 Cell Survival (Percentage) [7, 20]: 100 Percentage
Sf9P35AcV5-3 Cell Survival (Percentage) [7, 21]: 100 Percentage
Sf9P35AcV5-3 Cell Survival (Percentage) [7, 22]: 100 Percentage
Sf9P35AcV5-3 Cell Survival (Percentage) [7, 23]: 100 Percentage
survival of Sf9P35AcV5-3 cells [7, 24]: survived
Sf9P35AcV5-3 Cell Survival (Percentage) [7, 25]: 100 Percentage
Sf9P35AcV5-3 Cell Survival (Percentage) [7, 26]: 100 Percentage
Sf9P35AcV5-3 Cell Survival (Percentage) [7, 27]: 100 Percentage
Sf9P35AcV5-3 Cell Survival (Percentage) [7, 28]: 100 Percentage
survival of stably transfected line ([7]; 0.25 μg/ml actinomycin D): 100%
Sf9P35AcV5-3 Cell Survival (Percentage) [7, 29]: 100 Percentage
Sf9P35AcV5-3 Cell Survival (Percentage) [7, 30]: 100 Percentage
Sf9P35AcV5-3 Cell Survival (Percentage) [7, 31]: 100 Percentage
Sf9P35AcV5-3 Cell Survival (Percentage) [7, 32]: 100 Percentage
survival of stably transfected line ([7]; 0.5 μg/ml actinomycin D): ≤ 10%
Sf9P35AcV5-3 Cell Survival (Percentage) [7, 33]: 9.2 Percentage
Sf9P35AcV5-3 Cell Survival (Percentage) [7, 34]: 8.5 Percentage
Sf9P35AcV5-3 Cell Survival (Percentage) [7, 35]: 1.5 Percentage
Sf9P35AcV5-3 Cell Survival (Percentage) [7, 36]: 0 Percentage
resistance to actinomycin D as an inducer of apoptosis ([7]; relative to Sf9 cells): ≥ 2 fold
